Measured values as given in publication PMC7833800 (Journal of Virological Methods, 2020).
Like-named read-outs stand apart in the source and are kept apart here.

Molecular target: SARS-CoV RTC (nsp12 in complex with nsp7L8) (Severe acute respiratory syndrome coronavirus, UniProt P0C6X7)
Experiment: biochemical

| SMILES | IC50 (IC50) | IC50 |
| --- | --- | --- |
| O=c1cc(-c2ccc(Oc3c(O)cc4oc(-c5ccc(O)cc5)cc(=O)c4c3O)cc2)oc2cc(O)cc(O)c12 [Hinokiflavone] | 0.95 µM |  |
| O=c1cc(-c2ccc(O)cc2)oc2cc(O)cc(O)c12 [Apigenin] | 96 µM |  |
| O=c1ccn([C@@H]2O[C@H](COP(=O)(O)OP(=O)(O)OP(=O)(O)O)C[C@H]2O)c(=O)[nH]1 [3’dUTP] |  | 6.7 µM |
